US12303508B2, “Combinatory treatment strategies of cancer based on RNA polymerase I inhibition” (THE JOHNS HOPKINS UNIVERSITY, priority 2016, dated 2025)

What was measured:
[1] = system: HCT116 p53−/− colon carcinoma cells; experiment: Cell viability (CellTiter-Blue) with Chou-Talalay combination index, HCT116 p53-/-; format: cell-based; details: in combination with BMH-21, HCT116 p53−/− cells, 48 h
Method: (§1) Data represent N=2 biological assays each conducted in triplicate. […] Chou-Talalay plots are shown. Data represents N=2 biological assays each conducted in triplicate.
(§2) Cells and Viability Assay. A375 melanoma and LNCaP prostate cancer cells were from American Type Culture Collection. HCT116 p53+/+ and −/− cells were from Dr. F. Bunz. MR49F cells were from Dr. M. Gleave. Cells were maintained at 37° C. in a humidified atmosphere containing 5% CO2. Cells were plated in 96-well plates at a density of 3,000 cells/well in triplicate and incubated for 48 h with the compounds. Viability was determined using CellTiter-Blue Cell Viability Assay (Promega) according to manufacturer's instructions. Chou-Talaley algorithm (Compusyn) was used to define the combination index (CI) where CI<1 denotes synergism, CI>1 denotes antagonism and CI=1 is additive. Effect denotes the combinatory drug activity where 1 represents 100% kill.
(§3) The inventors tested these combinations in three different cell lines (A375 melanoma cells, HCT116 p53+/+ and HCT116 p53−/− colon carcinoma cells).

[2] = system: HCT116 p53+/+ colon carcinoma cells; experiment: Cell viability (CellTiter-Blue) with Chou-Talalay combination index, HCT116 p53+/+; format: cell-based; details: in combination with BMH-21, HCT116 p53+/+ cells, 48 h
Method: as §1, §2, §3

[3] = system: A375 human melanoma cells; experiment: Cell viability (CellTiter-Blue) with Chou-Talalay combination index, A375; format: cell-based; details: in combination with BMH-21, constant concentrations, 48 h, CI<1 synergism, CI>1 antagonism
Method: (§4) Cells were maintained at 37° C. in a humidified atmosphere containing 5% CO2. […] Effect denotes the combinatory drug activity where 1 represents 100% kill.

LC3-II in MR49F cells = experiment: LC3-II western blotting and immunofluorescence staining; format: cell-based; details: 24 h
Method: (§5) Cell viability was measured using Cell TiterBlue, and Chou-Talalay Combination Index analysis was performed. CI<1 denotes synergism. Effect denotes the combinatory drug activity where 1 represents 100% kill.
(§6) Immunofluorescence and Epifluorescence Microscopy. Cells grown on coverslips were fixed in 3.5% paraformaldehyde, permeabilized with 0.5% NP-40 and blocked with 3% BSA. Cells were stained for LC3-II and cleaved caspase-3 (Cell Signaling). Alexa 488-conjugated secondary antibodies were from Invitrogen. DNA was counterstained with DAPI (Invitrogen). Images were captured using Axioplan2 fluorescence microscope (Zeiss) equipped with AxioCam HRc CCD-camera and AxioVision 4.5 software using EC Plan-Neofluar 20× or 40× objectives (Zeiss).
Immunoblotting. Cells were lysed in 0.5% NP-40 buffer (25 mM Tris-HCl, pH 8.0, 120 mM NaCl, 0.5% NP-40, 4 mM NaF, 100 μM Na3VO4, 100 KIU/ml aprotinin, 10 μg/ml leupeptin) or RIPA lysis buffer. Proteins were separated on SDS-PAGE, blotted, probed for respective proteins and detected using ECL (Amersham). The primary antibodies used for detection were LC3-II and cleaved caspase-3 (Cell Signaling). HRP-conjugated secondary antibodies were from DAKO or Santa Cruz Biotechnology.

MR49F cells = experiment: Cleaved caspase-3 and DNA staining, MR49F; format: cell-based; details: for massive apoptotic response, single treatment: either treatment alone
Description: as §6, with “The inset bars represent sub-G1 cells. (B) The percentage of sub-G1 cells from A is plotted over time. (C) Staining of the cells for the apoptosis marker caspase-3. Immunofluorescence” for “Immunofluorescence”

tumor xenograft = details: previously demonstrated; cited from earlier work
NCI60 cancer cell lines = details: previously demonstrated; cited from earlier work
LNCaP cells = experiment: Cleaved caspase-3 and DNA staining, LNCaP; format: cell-based; details: for massive apoptotic response, single treatment: either treatment alone
Description: as §6, with “The inset bars represent sub-G1 cells. (B) The percentage of sub-G1 cells from A is plotted over time. (C) Staining of the cells for the apoptosis marker caspase-3. Immunofluorescence” for “Immunofluorescence”

RPA194 = details: previously demonstrated; cited from earlier work
[4] = system: MR49F enzalutamide-resistant prostate cancer cells; experiment: Cell viability (CellTiter-Blue) with Chou-Talalay combination index, MR49F; format: cell-based; details: in combination with BMH-21, constant concentrations, 48 h, CI<1 synergism
Method: as §5, §4

[5] = system: LNCaP prostate cancer cells; experiment: Cell viability (CellTiter-Blue) with Chou-Talalay combination index, LNCaP; format: cell-based; details: in combination with BMH-21, LNCaP cells, 48 h
Method: Cell viability was measured using Cell TiterBlue, and the mean of triplicate samples is shown. (B) Chou-Talalay combination index (CI) analysis was used to determine the drug interactions (blue curve). CI<1 denotes synergism. Red bar, C=1 additive effect. Fraction dead cells denotes the combinatory drug activity where 1 represents 100% kill.
as §2

[6] = BMH-21 plus Avasimibe combination

Compound	drug interaction with BMH-21 (Chou-Talalay combination index on cell viability) [1]	drug interaction with BMH-21 (Chou-Talalay combination index on cell viability) [2]	drug interaction with BMH-21 (Chou-Talalay combination index on cell viability) [3]	massive apoptotic response, single treatment (MR49F cells)	massive apoptotic response, single treatment (LNCaP cells)	drug interaction with BMH-21 (Chou-Talalay combination index on cell viability) [4]	also measured
O=C(c1cc(Cc2n[nH]c(=O)c3ccccc23)ccc1F)N1CCN(C(=O)C2CC2)CC1 [olaparib, 4-[[3-[4-(cyclopropanecarbonyl)piperazine-1-carbonyl]-4-fluorophenyl]methyl]-2H-phthalazin-1-one]	synergistically	synergistically	synergistically	–	–	–	–
CCN(CC)CCCC(C)Nc1ccnc2cc(Cl)ccc12 (centres unmarked) [chloroquine]	–	–	–	–	–	–	number of LC3-II puncta (LC3-II in MR49F cells; co-treatment with BMH-21 (1 μM)): significant increase; expression of LC3-II (marker for autophagy inhibition) (LC3-II in MR49F cells; combination with BMH-21 (1 μM), western blotting and immunofluorescence): increased
CN(C)CCNC(=O)c1cccn2c(=O)c3cc4ccccc4cc3nc12 [BMH-21, 12H-Benzo[g]pyrido[2,1-b]quinazoline-4-carboxamide, N-[2(dimethylamino)ethyl]-12-oxo]	–	–	–	not observed	not observed	–	tumor burden in mouse xenograft assays (tumor xenograft): reduced tumor burden; anticancer activity in NCI60 cancer cell lines (NCI60 cancer cell lines): broad and potent anticancer activity; degradation of RPA194 (RPA194): causes proteasome-mediated degradation of RPA194
Cn1ncnc1[C@H]1c2n[nH]c(=O)c3cc(F)cc(c23)N[C@@H]1c1ccc(F)cc1 [BMN-673]	synergistically	synergistically	synergistically	–	–	–	–
CC(C)c1cc(C(C)C)c(CC(=O)NS(=O)(=O)Oc2c(C(C)C)cccc2C(C)C)c(C(C)C)c1 [Avasimibe]	–	–	–	not observed	not observed	prominent synergistic activities	drug interaction with BMH-21 (cell viability, Chou-Talalay combination index) [5]: synergistic cancer cell death; apoptosis by cleaved caspase-3 and DNA staining, combination (MR49F cells; [6]): prominent cell apoptosis; apoptosis by cleaved caspase-3 and DNA staining, combination (LNCaP cells; [6]): prominent cell apoptosis
Bafilomycin	–	–	–	–	–	synergistic cell death	–
